Legend:
[1] = tested on: proteinase 3 (PR3); assay: PR3 activity in lysates of mouse bone marrow progenitor cells differentiated into neutrophils under DPP1 inhibitor; type: cell-based
Description: (§1) Male or female C57BL/6 mice at the age of 8-14 weeks were used.
(§2) The two femurs and two tibias were removed out of a single mouse and gauze was used to remove the muscles and residue tissues. A sterile environment for surgical instruments and surgical sites is maintained. The bones were put into one 15-mL tube with cold sterile RPMI medium and placed on ice until further processing is performed.
(§3) A fresh 50-mL tube is placed on ice and a fresh 40/70 μm cell strainer (CLS431750, Sigma) is inserted into the top of the Falcon tube. Both ends of two femurs and two tibias are cut with bone cutters and flush bone marrow of all bones from one single mouse are placed into the cell strainer. 5-mL of ice-cold RPMI (RPMI medium containing 10 mM HEPES, pH 7.4) was used for each femur or tibia using a blunt needle (25 G needle), totaling about 20 mL per tube.
(§4) The cell suspension is centrifuged at 600×g for 5 min at 4° C. and the supernatant is carefully discarded.
(§5) The cell pellet is resuspended in 400 μL of ice-cold MACS buffer (PH7.2 PBS plus 0.5% BSA and 2 mM EDTA) for one adult mouse (optimized for 4 bones/mouse).
(§6) 100 μL Direct Lineage Cell Depletion Cocktail (which is enough for 100 million cells depletion) is added. The components are mixed well and incubated for 10 min. at 2° C.-8° C.
(§7) Magnetic separation LS Column (MACS, Miltenyi, 130 042 401) is prepared by placing it in the magnetic field of MACS Separator and rinsing with 3 mL of ice-cold MACS buffer.
(§8) Cell suspension is applied onto the column. Flow-through containing unlabeled cells, representing the enriched lineage negative cells, is collected.
(§9) Column is washed with 3×3 mL of ice-cold MACS buffer. Unlabeled cells that pass through are collected, representing the enriched lineage negative cells, and combined with the flow-through from prior step.
(§10) The cell suspension is centrifuged at 600×g for 5 min at 4° C., and the supernatant is carefully discarded. The pellet is washed once with 10 mL ice cold IMDM medium (IMDM GlutaMax (Gibco, 31980030) plus 10% FCS and 1% PS).
(§11) The cell pellet is resuspended with 2 mL ice-cold complete IMDM medium and the cells are counted. The cells are then ready for neutrophil differentiation.
(§12) The resulting undifferentiated bone marrow cells are in complete IMDM medium (IMDM with 10% FBS and 1% antibiotics); and the concentration of cells is adjusted to 1×10^5 cells/mL, supplemented with 50 ng/ml of SCF (BioLegend, 579704) and 50 ng/ml of IL 3 (BioLegend, 575504). The cells are subgrouped and the respective DPP1 inhibitors are added accordingly. Cells are then cultivated in a flask at 37° C. for 3 days.
(§13) Cells are checked each day for expansion and maintaining a final concentration between 2-10×10^5 cells/ml. On day 3, cells are counted. 3-4 million cells for each group are harvested and lystates prepared for NSPs activity detection. The left cells are resuspended at 2× 10^5 cells/mL in fresh medium supplemented with 50 ng/ml of SCF, 50 ng/ml of IL 3 and 50 ng/ml of G-CSF (BioLegend, 574604). The DPP1 inhibitors are refreshed in the medium. Cells are then cultivated in a flask at 37° C. for another 2 days.
(§14) On day 5, cells are counted. 3-4 million cells/condition are harvested and the cells are lysed to prepare samples for NSPs activity detection. The remaining cells are collected by centrifugation at 600×g for 5 min. The left cells are washed once in 1×PBS. After the wash, the pelleted cells are resuspended in complete IMDM medium at 4-6×10^5 cells/mL supplemented with 50 ng/ml of G-CSF only. The DPP1 inhibitors in the medium are refreshed. Cells incubate for additional 2 days, for a total of 7 days from day of harvest. On day 7, cells are counted. 3-4 million cells/condition are harvested and the cell lysed to prepare samples for NSPs activity detection.
(§15) 3-4 million cells are collected into Eppendorf tubes. Samples are spun down at 600×g, 4° C. for 5 min. The supernatant is removed and resuspended in 1 mL PBS. […]

[2] = tested on: Neutrophil elastase (NE); assay: Neutrophil elastase activity in lysates of mouse bone marrow progenitor cells differentiated into neutrophils under DPP1 inhibitor; type: cell-based
Description: as §1, §2, §3, §4, §5, §6, §7, §8, §9, §10, §11, §12, §13, §14, §15

[3] = tested on: cathepsin G (CatG); assay: CatG activity in lysates of mouse bone marrow progenitor cells differentiated into neutrophils under DPP1 inhibitor; type: cell-based; details: for max inhibition of CatG activity observed: regardless of day
Description: as §1, §2, §3, §4, §5, §6, §7, §8, §9, §10, §11, §12, §13, §14, §15

[4] = target: T1, human DPP1 (Homo sapiens, UniProt P53634); assay: Human DPP1 Enzyme IC50 Assay; type: biochemical; details: activated human DPP1 enzyme, H-Gly-Arg-AMC substrate
T1 construct: was first proteolytically processed into its mature form using recombinant human cathepsin L; purchased R&D Systems
T1 sequence (P53634 25-134 limits assumed): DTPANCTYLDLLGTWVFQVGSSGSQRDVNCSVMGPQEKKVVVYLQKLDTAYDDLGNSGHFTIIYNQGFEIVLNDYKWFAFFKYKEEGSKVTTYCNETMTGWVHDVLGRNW
T1 sequence (P53634 231-394 limits assumed): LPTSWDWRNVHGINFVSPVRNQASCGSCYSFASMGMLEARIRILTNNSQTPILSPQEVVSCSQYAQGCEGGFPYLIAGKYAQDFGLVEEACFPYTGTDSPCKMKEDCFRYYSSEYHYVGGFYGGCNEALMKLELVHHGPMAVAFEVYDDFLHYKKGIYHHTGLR
T1 sequence (P53634 395-463 limits assumed): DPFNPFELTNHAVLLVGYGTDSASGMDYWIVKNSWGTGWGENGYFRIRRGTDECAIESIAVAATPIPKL
Description: Recombinant human DPP1 enzyme (R&D Systems; Minneapolis, MN) was first proteolytically processed into its mature form using recombinant human cathepsin L (R&D Systems) in a buffer consisting of 20 mM citric acid pH 4.5, 150 mM NaCl, 1 mM EDTA and 10 mM DTT. Alternatively, a crude lysate of HL-60 cells (ATCC; Manassas, VA) is used as a source of human DPP1 enzyme in the assay. Lysate was prepared in 1% Triton X-100 in PBS at a concentration of 20,000 live cells per μL of lysis buffer and centrifuged at 16,000×g for 10 minutes at 4° C., after which supernatant was collected and flash-frozen in liquid nitrogen.
Test articles were applied to activated human DPP1 enzyme in Assay Buffer (25 mM MES pH 6.0, 50 mM NaCl, 5 mM DTT) in a total reaction volume of 125 μL. 25 μL of compound in Assay Buffer plus 5% DMSO was first added to 50 μL of activated human DPP1 enzyme at a concentration of 1 ng/μL and allowed to pre-incubate for 10 minutes at 37° C. after which 50 μL of 1000 μM H-Gly-Arg-AMC substrate (Bachem; St. Torrance, CA) was added, giving final substrate concentration of 400 μM and a final DMSO concentration of 1%. Substrate cleavage was measured for 90 minutes at 37° C., with fluorescence at Excitation/Emission 350/450 nm measured every 5 minutes. DPP1 concentration was interpolated based on its activity relative to a standard curve of activated human recombinant DPP1 enzyme. IC50 values for each compound were calculated via the XLFit (IDBS Version 5.3.1.3) Add-On to Microsoft Excel using the four parameter fit equation y=(A+ ((B−A)/(1+ ((C/x)^D)))), which appears as equation number 205 (4 Parameter Logistic Model or Sigmoidal Dose-Response Model) in XLFit. Default constraints were used for each Parameter.

Row | Structure (SMILES) | PR3 Activity (% reduction from control) ([1]; 0.02 μM, Day 3) [%] | PR3 Activity (% reduction from control) ([1]; 0.02 μM, Day 5) [%] | PR3 Activity (% reduction from control) ([1]; 0.02 μM, Day 7) [%] | PR3 Activity (% reduction from control) ([1]; 0.1 μM, Day 3) [%] | PR3 Activity (% reduction from control) ([1]; 0.1 μM, Day 5) [%] | PR3 Activity (% reduction from control) ([1]; 0.1 μM, Day 7) [%] | max inhibition of PR3 activity observed ([1]; regardless of day) | Neutrophil Elastase Activity (% reduction from control) ([2]; 0.02 μM, Day 3) [%] | Neutrophil Elastase Activity (% reduction from control) ([2]; 0.02 μM, Day 5) [%] | Neutrophil Elastase Activity (% reduction from control) ([2]; 0.02 μM, Day 7) [%] | Neutrophil Elastase Activity (% reduction from control) ([2]; 0.1 μM, Day 3) [%] | Neutrophil Elastase Activity (% reduction from control) ([2]; 0.1 μM, Day 5) [%] | Neutrophil Elastase Activity (% reduction from control) ([2]; 0.1 μM, Day 7) [%] | CatG Activity (% reduction from control) ([3]; 0.02 μM, Day 3) [%] | CatG Activity (% reduction from control) ([3]; 0.02 μM, Day 5) [%] | CatG Activity (% reduction from control) ([3]; 0.02 μM, Day 7) [%] | CatG Activity (% reduction from control) ([3]; 0.1 μM, Day 3) [%] | CatG Activity (% reduction from control) ([3]; 0.1 μM, Day 5) [%] | CatG Activity (% reduction from control) ([3]; 0.1 μM, Day 7) [%] | IC50 [4] [nM] | further results
1 | COC1CNC[C@@H](C(=O)N[C@H](C#N)Cc2ccc(-c3ccc4oc(=O)n(C)c4c3)cc2)OC1 (mixture of isomers) [INSM-202, (6-rac)-(2S)—N-[(1S)-1-cyano-2-[4-(3-methyl-2-oxo-2,3-dihydro-1,3-benzoxazol-5-yl)phenyl]ethyl]-6-methoxy-1,4-oxazepane-2-carboxamide] | 94 | 95 | 93 | 94 | 96 | 98 | ~ 95% | 86 | 80 | 89 | 78 | 90 | 88 | 93 | 94 | 99 | 100 | 100 | 100 | 1.03 ± 0.1 | maximum inhibition of NE activity observed ([2]; regardless of day): ~ 85%; max inhibition of CatG activity observed [3]: ~ 95%
2 | Cn1c(=O)oc2ccc(-c3ccc(C[C@@H](C#N)NC(=O)[C@@H]4CNC[C@H](O)CO4)cc3)cc21 (single isomer, unassigned) [INSM-201, (2S,6S*)—N-[(1S)-1-cyano-2-[4-(3-methyl-2-oxo-2,3-dihydro-1,3-benzoxazol-5-yl)phenyl]ethyl]-6-hydroxy-1,4-oxazepane-2-carboxamide] | 45 | 36 | 72 | 79 | 96 | 96 |  | 67 | 42 | 78 | 83 | 83 | 84 | 46 | 27 | 78 | 90 | 94 | 98 | 2.03 ± 0.2 | reduction in PR3 activity [1]: concentration-dependent reduction in PR3 activity; max inhibition of PR3 activity observed ([1]; at 1 μM on D5 and D7): ~ 95%; PR3 inhibition at low dose, fluctuations depending on the day (range) ([1]; low dose, range over days): 36%-72%; reduction in NE activity [2]: concentration-dependent reduction in NE activity; maximum inhibition of NE activity observed ([2]; at 0.1 μM regardless of day): ~ 85%; NE inhibition at low dose, fluctuations depending on the day (range) ([2]; low dose, range over days): 42-78%; reduction in CatG activity [3]: concentration-dependent reduction in CatG activity; max inhibition of CatG activity observed ([3]; at 1 μM): ~ 95%; CatG inhibition at low dose, fluctuations depending on the day (range) ([3]; low dose, range over days): 27-78%
3 | COC1CNC[C@@H](C(=O)N[C@H](C#N)Cc2ccc(-c3ccc4oc(=O)n(C)c4c3)cc2)OC1 (single isomer, unassigned) [INSM-203, (2S,6R*)—N-[(1S)-1-cyano-2-[4-(3-methyl-2-oxo-2,3-dihydro-1,3-benzoxazol-5-yl)phenyl]ethyl]-6-methoxy-1,4-oxazepane-2-carboxamide] | 93 | 93 | 85 | 94 | 94 | 84 | ~ 90% | 89 | 82 | 84 | 91 | 84 | 86 | 93 | 97 | 94 | 99 | 100 | 96 | 0.6 ± 0.1 | concentration by which PR3 inhibition plateau is reached [1]: ≤ 0.02 µM; maximum inhibition of NE activity observed ([2]; regardless of day): ~ 85%; max inhibition of CatG activity observed [3]: ~ 95%

From patent US20260242365A1, “USES OF CERTAIN 1,4-OXAZEPANE-2-CARBOXAMIDES AS DPP1 INHIBITORS” (Insmed Incorporated, priority 2023, published 2026)
